# Data: US20150344485A1, “BICYCLIC PYRIMIDONE COMPOUNDS AS INHIBITORS OF LP-PLA2” (GLAXOSMITHKLINE INTELLECTUAL PROPERTY DEVELOPMENT LIMITED, priority 2013, published 2015)
# Where two headings read alike, the source gives them in different places.
# Legend:
# [1] = target: T1, recombinant human Lp-PLA2 (Homo sapiens, UniProt Q13093); assay: Recombinant human Lp-PLA2 assay (rhLp-PLA2, PED6 assay); type: biochemical
# T1 sequence (Q13093 22-441): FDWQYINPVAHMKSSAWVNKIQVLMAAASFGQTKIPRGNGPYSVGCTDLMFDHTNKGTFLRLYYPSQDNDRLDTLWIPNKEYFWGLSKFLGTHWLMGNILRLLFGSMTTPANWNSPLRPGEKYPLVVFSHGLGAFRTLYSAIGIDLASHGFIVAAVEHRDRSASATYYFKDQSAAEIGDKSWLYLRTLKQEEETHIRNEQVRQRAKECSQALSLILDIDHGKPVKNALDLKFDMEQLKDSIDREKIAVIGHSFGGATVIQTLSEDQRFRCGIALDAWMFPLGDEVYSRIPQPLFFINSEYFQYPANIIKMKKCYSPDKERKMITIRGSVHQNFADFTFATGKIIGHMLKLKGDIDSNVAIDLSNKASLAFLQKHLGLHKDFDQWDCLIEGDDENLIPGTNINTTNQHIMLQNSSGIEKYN
# Text: (1) Recombinant Human Lp-PLA2 Assay (rhLp-PLA2) (Also Referred to as “PED6” Assay)
# N-((6-(2,4-dinitrophenyl)amino)-hexanoyl)-2-(4,4-difluoro-5,7-dimethyl-4-bora-3a,4a-diaza-s-indacene-3-pentanoyl)-1-hexadecanoyl-sn-glycero-3-phosphoethanolamine, triethylammonium salt (PED6) is a commercially available fluorescently-labeled phospholipid, which is commercially available from Invitrogene and Molecular Probes. There is a quenching para-nitro phenyl (PNP) group in the sn3 position and a Bodipy fluorescein (FL) group in the sn2 position. Upon cleavage with Lp-PLA2, the Bodipy FL group is liberated and then may result in an increase in fluorescence. Inhibitors of Lp-PLA2 therefore prevent this cleavage and no fluorescent increase is observed.
# The PED6 assay was run as an unquenched 10 μL assay. The source plate containing the compounds to be tested was prepared by making 1:3 (by volume) serial dilution of the compounds within DMSO on 384-well microplate. Then, 0.01 μL of the compounds on compound source plate were transferred into 384 well Greiner 784076 (black) plates using ECHO liquid dispenser. 5 μL of recombinant human Lp-PLA2 enzyme (4 nM (or 110 pM) rhLp-PLA2 in assay buffer of 50 mM HEPES, pH 7.4, 150 mM NaCl, 1 mM CHAPS) was added to each well of the plate. Plates were centrifuged for 10 sec at 500 rpm. After 30 minutes preincubation, 5 μL of substrate (4 μM (or 5 μM) PED6 [from 5 mM DMSO stock] in assay buffer of 50 mM HEPES, pH 7.4, 150 mM NaCl, 1 mM CHAPS) was added to 384 well Greiner 784076 (black) plates. Plates were centrifuged for 10 sec at 500 rpm. The plate was covered to protect it from light and incubated for 20 min at room temperature. The plates were read for fluorescence intensity at ex: 480/em: 540 using ViewLux microplate imager for Envision spectrofluroimeters. pIC50 data, curve and QC analysis was conducted by using XL fit module in Excel.
# [2] = target: T2, Lp-PLA2 in human plasma (Homo sapiens, UniProt Q13093); assay: Lp-PLA2 human plasma assay (Thio-PAF assay); type: biochemical; settings: pooled human plasma; read-out: pIC50 values in the thio-PAF assay (converted)
# T2 construct: from tissue; host or cells: pooled human plasma
# T2 sequence (Q13093 22-441): T1 sequence (Q13093 22-441)
# Method in brief: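 Pooled human plasma preincubated 30 min with compound, then 2-thio-PAF substrate added with CPM and NEM in 50 mM HEPES pH 7.4, 150 mM NaCl, 1 mM CHAPS. Quenched with TFA after 2 min, incubated 40 min at room temperature, and read by fluorescence at ex 380/em 485 nm. Values given as pIC50.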
# [3] = read-out: pIC50 values in the recombinant human Lp-PLA2 assay (converted)
# [4] = read-out: rhLp-PLA2 (PED6 assay) (pIC50) (converted)
SMILES,"IC50 [1, 3] [nM]","IC50 [1, 4] [nM]",IC50 [2] [nM]
"C[C@@H]1CCn2c(cc(OCc3cc(F)c(Oc4cnc(C(F)(F)F)nc4)c(F)c3)nc2=O)N1C [E97, (R)-8-((3,5-difluoro-4-((2-(trifluoromethyl)pyrimidin-5-yl)oxy)benzyl)oxy)-1,2-dimethyl-3,4-dihydro-1H-pyrimido[1,6-a]pyrimidin-6(2H)-one]",≤ 1,0.1,≤ 10
"C[C@H]1CCn2c(cc(OCc3cc(F)c(Oc4cccc(C(F)(F)F)c4)c(F)c3)nc2=O)N1C [E62, (S)-8-((3,5-difluoro-4-(3-(trifluoromethyl)phenoxy)benzyl)oxy)-1,2-dimethyl-3,4-dihydro-1H-pyrimido[1,6-a]pyrimidin-6(2H)-one]",,3.98,≤ 10
"C[C@H]1CCn2c(cc(OCc3cc(F)c(Oc4cnc(C(F)(F)F)nc4)c(F)c3)nc2=O)N1C [E104, (S)-8-((3,5-difluoro-4-((2-(trifluoromethyl)pyrimidin-5-yl)oxy)benzyl)oxy)-1,2-dimethyl-3,4-dihydro-1H-pyrimido[1,6-a]pyrimidin-6(2H)-one]",≤ 1,,≤ 100
"C[C@H]1CCn2c(cc(OCc3ccc(Oc4ccc(F)c(C(F)(F)F)c4)cc3)nc2=O)N1C [E84, (S)-8-((4-(4-fluoro-3-(trifluoromethyl)phenoxy)benzyl)oxy)-1,2-dimethyl-3,4-dihydro-1H-pyrimido[1,6-a]pyrimidin-6(2H)-one]",≤ 1,,≤ 10
"C[C@H]1CCn2c(cc(OCc3ccc(Oc4ccc(C(F)(F)F)nc4)c(C#N)c3)nc2=O)N1C [E113, (S)-5-(((1,2-dimethyl-6-oxo-2,3,4,6-tetrahydro-1H-pyrimido[1,6-a]pyrimidin-8-yl)oxy)methyl)-2-((6-(trifluoromethyl)pyridin-3-yl)oxy)benzonitrile]",≤ 1,,≤ 100
"C[C@@H]1CCn2c(cc(OCc3ccc(F)c(F)c3)nc2=O)N1 [E28, (R)-8-((3,4-difluorobenzyl)oxy)-2-methyl-3,4-dihydro-1H-pyrimido[1,6-a]pyrimidin-6(2H)-one]",≤ 1,,≤ 100
"C[C@H]1CCn2c(cc(OCc3ccc(Oc4cnc(C(F)(F)F)nc4)c(F)c3)nc2=O)N1C [E107, (S)-8-((3-fluoro-4-((2-(trifluoromethyl)pyrimidin-5-yl)oxy)benzyl)oxy)-1,2-dimethyl-3,4-dihydro-1H-pyrimido[1,6-a]pyrimidin-6(2H)-one]",≤ 1,0.398,≤ 100
"CC1CCn2c(cc(OCc3ccc(Oc4ccc(C(F)(F)F)nc4)c(F)c3)nc2=O)N1 (stereo not shown) [E1, 8-((3-fluoro-4-((6-(trifluoromethyl)pyridin-3-yl)oxy)benzyl)oxy)-2-methyl-3,4-dihydro-1H-pyrimido[1,6-a]pyrimidin-6(2H)-one]",≤ 1,,≤ 100
"CC1CCn2c(cc(OCc3ccc(Oc4ccc(F)c(F)c4)c(F)c3)nc2=O)N1 (stereo not shown) [E3, 8-((4-(3,4-difluorophenoxy)-3-fluorobenzyl)oxy)-2-methyl-3,4-dihydro-1H-pyrimido[1,6-a]pyrimidin-6(2H)-one]",≤ 1,,≤ 100
"C[C@@H]1CCn2c(cc(OCc3ccc(Oc4ccc(F)c(Cl)c4)c(C#N)c3)nc2=O)N1C [E79, (R)-2-(3-chloro-4-fluorophenoxy)-5-(((1,2-dimethyl-6-oxo-2,3,4,6-tetrahydro-1H-pyrimido[1,6-a]pyrimidin-8-yl)oxy)methyl)benzonitrile]",≤ 1,,≤ 100
"CC1CCn2c(cc(OCc3ccc(F)c(F)c3)nc2=O)N1C (stereo not shown) [E7, 8-((3,4-difluorobenzyl)oxy)-1,2-dimethyl-3,4-dihydro-1H-pyrimido[1,6-a]pyrimidin-6(2H)-one]",≤ 1,,≤ 100
"C[C@@H]1CCn2c(cc(OCc3ccc(Oc4cncc(C(F)(F)F)c4)c(F)c3)nc2=O)N1C [E149, (R)-8-((3-fluoro-4-((5-(trifluoromethyl)pyridin-3-yl)oxy)benzyl)oxy)-1,2-dimethyl-3,4-dihydro-1H-pyrimido[1,6-a]pyrimidin-6(2H)-one]",≤ 1,,≤ 10
"CC1CCn2c(cc(OCc3ccc(Oc4ccc(C(F)(F)F)cc4)c(C#N)c3)nc2=O)N1 (stereo not shown) [E2, 5-(((2-methyl-6-oxo-2,3,4,6-tetrahydro-1H-pyrimido[1,6-a]pyrimidin-8-yl)oxy)methyl)-2-(4-(trifluoromethyl)phenoxy)benzonitrile]",≤ 1,0.126,≤ 100
"CN1c2cc(OCc3ccc(Oc4ccnc(C(F)(F)F)c4)c(F)c3)nc(=O)n2CCC1(C)C [E89, 8-((3-fluoro-4-((2-(trifluoromethyl)pyridin-4-yl)oxy)benzyl)oxy)-1,2,2-trimethyl-3,4-dihydro-1H-pyrimido[1,6-a]pyrimidin-6(2H)-one]",≤ 1,,≤ 10
"CC1CCn2c(cc(OCc3ccc(Oc4ccc(Cl)c(F)c4)c(C#N)c3)nc2=O)N1 (stereo not shown) [E6, 2-(4-chloro-3-fluorophenoxy)-5-(((2-methyl-6-oxo-2,3,4,6-tetrahydro-1H-pyrimido[1,6-a]pyrimidin-8-yl)oxy)methyl)benzonitrile]",≤ 1,,≤ 100
"CN1c2cc(OCc3cc(F)c(Oc4ccc(C(F)(F)F)nc4)c(F)c3)nc(=O)n2CCC1(C)C [E88, 8-((3,5-difluoro-4-((6-(trifluoromethyl)pyridin-3-yl)oxy)benzyl)oxy)-1,2,2-trimethyl-3,4-dihydro-1H-pyrimido[1,6-a]pyrimidin-6(2H)-one]",≤ 1,,≤ 100
"[2H]C([2H])(Oc1cc2n(c(=O)n1)CCC(C)(C)N2C)c1cc(F)c(F)cc1F [E71, 8-(dideutero(2,4,5-trifluorophenyl)methoxy)-1,2,2-trimethyl-3,4-dihydro-1H-pyrimido[1,6-a]pyrimidin-6(2H)-one]",≤ 1,,≤ 100
"CN1c2cc(OCc3cc(F)c(F)c(F)c3)nc(=O)n2CCC1(C)C [E54, 1,2,2-trimethyl-8-((3,4,5-trifluorobenzyl)oxy)-3,4-dihydro-1H-pyrimido[1,6-a]pyrimidin-6(2H)-one]",≤ 1,,≤ 100
"C[C@@H]1CCn2c(cc(OCc3cc(F)c(Oc4cccc(C(F)(F)F)c4)c(F)c3)nc2=O)N1C [E77, (R)-8-((3,5-difluoro-4-(3-(trifluoromethyl)phenoxy)benzyl)oxy)-1,2-dimethyl-3,4-dihydro-1H-pyrimido[1,6-a]pyrimidin-6(2H)-one]",≤ 1,,≤ 10
"C[C@@H]1CCn2c(cc(OCc3cc(F)c(Oc4ccc(C(F)(F)F)nc4)c(F)c3)nc2=O)N1C [E119, (R)-8-((3,5-difluoro-4-((6-(trifluoromethyl)pyridin-3-yl)oxy)benzyl)oxy)-1,2-dimethyl-3,4-dihydro-1H-pyrimido[1,6-a]pyrimidin-6(2H)-one]",≤ 1,,≤ 100
"C[C@@H]1CCn2c(cc(OCc3cc(F)c(Oc4ccc(F)c(F)c4)c(F)c3)nc2=O)N1C [E101, (R)-8-((4-(3,4-difluorophenoxy)-3,5-difluorobenzyl)oxy)-1,2-dimethyl-3,4-dihydro-1H-pyrimido[1,6-a]pyrimidin-6(2H)-one]",≤ 1,,≤ 10
"C[C@H]1CCn2c(cc(OCc3ccc(Oc4ccc(C(F)(F)F)c(F)c4)cc3)nc2=O)N1C [E105, (S)-8-((4-(3-fluoro-4-(trifluoromethyl)phenoxy)benzyl)oxy)-1,2-dimethyl-3,4-dihydro-1H-pyrimido[1,6-a]pyrimidin-6(2H)-one]",≤ 1,,≤ 100
"C[C@@H]1CCn2c(cc(OCc3ccc(Oc4ccc(C(F)(F)F)c(F)c4)cc3)nc2=O)N1C [E108, (R)-8-((4-(3-fluoro-4-(trifluoromethyl)phenoxy)benzyl)oxy)-1,2-dimethyl-3,4-dihydro-1H-pyrimido[1,6-a]pyrimidin-6(2H)-one]",≤ 1,,≤ 100
